Results published in patent US20070154464A1, “Methods for screening for agents capable of modulating t lymphocyte function in response to a herpes simplex virus-infected cell” (priority 2003, published 2007).
Read-outs that look alike come from different tables or passages of the source.

Assays:
CD8+ CTL clone SKH-13 = format: cell-based, human
HSV-2 = test: Quantitative real-time PCR (TaqMan) of HSV levels in fibroblasts and CTL; format: cell-based
Protocol: Quantitative Real-Time PCR Using TaqMan® Chemistry: CTL were incubated with uninfected or HSV-infected fibroblasts for 4 h, removed by aspiration, and incubated for 5 h at 37° C. In the acyclovir group, fibroblasts were treated with 50 μM acyclovir for 2 h prior to infecting with HSV for 6 h. Removed CTL were then incubated with CD8-conjugated Dynabeads® (Dynal A.S., Oslo, Norway) for 30 m rocking at 4° C. and washed as directed by the manufacturer. DNA was purified from uninfected fibroblasts, HSV-infected fibroblasts, and CD8 enriched CTL using DNeasy® Tissue Kits (Qiagen, Valencia, Calif.). DNA was quantified by spectrophotometry and used as template in TaqMan® real-time PCR reactions with primers and fluorogenic probes specific for the HSV glycoprotein B gene or the cellular beta-globin gene. Reactions were carried out using an ABI 7700 Sequencer (Applied Biosystems, Foster City, Calif.), and the sequences and concentrations of the primers and probes used were as previously described (Liu et al., J. Virol. 75:11178, 2001).
The most sensitive technique available to detect the presence of HSV is real-time, quantitative PCR. Primers and probes against a viral gene (gB) and a cellular gene (beta globin) were used to determine the number of HSV copies per cell in HSV-infected fibroblasts and in inactivated CTL. […]

CTL [1] = test: Mitochondrial potential of CTL by MitoTracker Red CMXRos flow cytometry; format: cell-based, human; settings: 1 μM, 4 h, CTL without fibroblasts
Protocol: Mitochondrial potential was assessed in untreated CTL, CTL treated with 1 μM staurosporine (Sigma, St. Louis, Mo.) for 4 h, CTL incubated with uninfected fibroblasts (control) for 4 h, and CTL incubated with HSV-infected fibroblasts (inactivated) for 4 h. CTL were then stained using MitoTracker® Red CMXRos as per the manufacturer's instructions (Molecular Probes, Inc., Eugene, Oreg.). Control and inactivated CTL were also stained with antibody against CD95/Fas (clone DX2, Dako, Carpinteria, Calif.) and with the DNA-binding dye 7-amino-actinomycin D (7-AAD, Sigma, St. Louis, Mo.) and analyzed by flow cytometry.

HSV-inactivated T cells = format: cell-based, human
T cells = format: cell-based, human
CTL [2] = test: Redirected cell lysis of 51Cr-labeled FcγR+ P815 target cells by anti-CD3-labeled CTL; format: cell-based, human; settings: antibody 1 μg/ml for 15 m; control vs inactivated CTL; 5 h

C[C@@H]1C[C@@H]([C@H](O)CC2CC(=O)NC(=O)C2)C(=O)[C@@H](C)C1 [CHX, cyclohexamide]
Effect on HSV-mediated inactivation of CTL (CD8+ CTL clone SKH-13; CTL (5 h prior) or targets exposed to 10 μg/ml): no effect on HSV-mediated inactivation
Effect on HSV-mediated inactivation of CTL (CD8+ CTL clone SKH-13; fibroblasts treated with 10 μg/ml for 10 h prior to infection): abolished HSV-mediated inactivation

Nc1nc2c(ncn2COCCO)c(=O)[nH]1 [acyclovir]
# HSV Copies/cell (HSV-2; CTL incubated 4 h on HSV-2-infected fibroblasts treated with 50 μM acyclovir, CD8-bead enriched): 0.16 Copies/cell
HSV copies detected per CTL (HSV-2; fibroblasts treated with 50 μM acyclovir prior to infection, inactivated CTL): 1 copy of HSV was detected per 6 CTL

C/C=C/[C@H]1O[C@@](O)([C@@H](C)[C@H](O)[C@H](C)[C@H]2OC(=O)/C(OC)=C/C(C)=C/[C@@H](C)[C@@H](O)[C@@H](CC)[C@@H](O)[C@H](C)C/C(C)=C/C=C/[C@@H]2OC)C[C@@H](O)[C@@H]1C [concanamycin]
51Cr release from target cells by SKH-13 CTL clone (CD8+ CTL clone SKH-13): prevented ^51Cr release from target cells

CN[C@@H]1C[C@H]2O[C@@](C)([C@@H]1OC)n1c3ccccc3c3c4c(c5c6ccccc6n2c5c31)C(=O)NC4 [staurosporine]
CMXRos signal (mitochondrial membrane potential) in CTL (CTL [1]): significant decrease in the CMXRos signal

IL-15: human recombinant IL-15 (Peprotech)
Restoration of lytic function to HSV-inactivated T cells (HSV-inactivated T cells): not to restore lytic function

OKT3: monoclonal antibody raised against CD3 (clone OKT3, Ortho-McNeil)
TNF-α and IFN-γ synthesis by inactivated T cells (T cells): failed to synthesize TNF-α and IFN-γ
Lytic granule release via redirected lysis (CTL [2]): Control but not inactivated CTL were capable of lytic granule release

B1: IL-7: human recombinant IL-7 (RnDSystems) (protein, UniProt P13232 26-177, looked up)
Interleukin-7: DCDIEGKDGKQYESVLMVSIDQLLDSMKEIGSNCLNNEFNFFKRHICDANKEGMFLFRAARKLRQFLKMNSTGDFDLHLLKVSEGTTILLNCTGQVKGRKPAALGEAQPTKSLEENKSLKEQKKLNDLCFLKRLLQEIKTCWNKILMGTKEH
Restoration of lytic function to HSV-inactivated T cells (HSV-inactivated T cells): not to restore lytic function
